The source of these data is publication PMC8575619, “Cytotoxic and Antifungal Amides Derived from Ferulic Acid: Molecular Docking and Mechanism of Action” (BioMed Research International, 2021).

The test system of series [1] is Candida krusei CBS 573. The series can be described thus: Minimum fungicide concentration (MFC). The class given is cell-based. As to conditions: for MIC/MFC reason C. krusei CBS 573: ≥ 4 fungistatic or <4 fungicide. The procedure:
(§1) Antifungal activity evaluations were performed using references strains of Candida spp., obtained from the Centraalbureau voor Schimmelcultures (CBS, Ultrecht, Netherlands): Candida albicans CBS 562, Candida tropicalis CBS 94, and Candida krusei CBS 573. Nystatin, Tween 80%, DMSO, caspofungin diacetate, and ergosterol were obtained from Sigma-Aldrich® (St. Louis, MO, EUA) and sorbitol (D-sorbitol anhydrous) from INLAB® (São Paulo, Brazil). All assays were performed in triplicate in three independent experiments. The culture medium used for maintenance of the microorganisms was Agar Sabouraud Dextrose (ASD). Inoculants were adjusted to a final concentration of 2.5 × 10^3 CFU/mL (Clinical and Laboratory Standards Institute, 2002). […]
(§2) The minimum fungicide concentration (MFC) of the compounds was obtained after the interpretation of the MIC. Three (3) aliquots of 30 μL of supernatant were removed from the wells (where complete inhibition of fungal growth was analyzed) and placed in Petri dishes containing 15 mL of agar Sabouraud dextrose. The plates were incubated at 35 ± 2°C for 24 h for visual counting of colony forming units. To determine whether the compounds had fungistatic (MFC/MIC ≥ 4) or fungicidal (MFC/MIC < 4) activity, the MFC/MIC ratio was calculated.

Series [2] relates to Candida tropicalis CBS 94. As to the kind of experiment: Minimum fungicide concentration (MFC). The class given is cell-based. The settings on record: for MIC/MFC reason C. tropicalis CBS 94: ≥ 4 fungistatic or <4 fungicide. How it is done: as §1, §2
The subject of a further series is HL-60. As to the kind of experiment: Cytotoxicity assay, alamar blue test. Format: cell-based, human. As to conditions: value (95% confidence interval); for IC50: read-out: IC50 HL60. How it is done: (§3) HepG2 cells (human hepatocellular carcinoma), HCT116 (human colon carcinoma), HL-60 (human promyelocytic leukemia), and MRC5 (human lung fibroblast) obtained from the ATCC (Manassas, VA, USA) were used. Cells were cultured in cell culture bottles (75 cm 3, 250 mL volume), and media used were RPMI 1640 and supplemented with 10% fetal bovine serum. Cells were maintained in incubators with 5% CO2 atmosphere at 37°C. Cellular growth was monitored daily with the use of an inversion microscope. The medium was changed whenever cell growth reached the necessary confluence for nutrient renewal. For the maintenance of adhered cells, trypsin (0.25%) was used for the cells to detach from the walls of the bottles.
(§4) To assess the cytotoxicity of the substances, the alamar blue test was performed after 72 h of exposure with the test substances. Alamar blue, known as resazurin [62], is a fluorescent/colorimetric indicator with redox properties. The reduction in alamar blue reflects cell proliferation. This was initially used to indicate cell growth and/or viability in monitoring lymphocyte proliferation and currently has several applications. Initially, cells were plated in 96-well plates (100 μL/well of a solution of 0.3 × 10^6 cells/mL for cells in suspension and 0.7 × 10^5 cells/mL for adhered cells). After 24 h of incubation, the test substances dissolved in DMSO were added to each well and incubated for 72 h. Doxorubicin was used as a positive control. The negative control received the same amount of DMSO. Four hours before the end of the incubation period, 20 μL of the stock solution (0.312 mg/mL) of alamar blue (resazurin) was added to each well. Absorbances were measured at wavelengths of 570 nm (reduced) and 600 nm (oxidized) using a plate reader.

A further series relates to HCT116. The series can be described thus: Cytotoxicity assay, alamar blue test. The class given is cell-based, human. As to conditions: value (95% confidence interval). How it is done: as §3, §4
Another series has as its system HepG2 cells. The series can be described thus: Cytotoxicity assay, alamar blue test. As to conditions: value (95% confidence interval). The class given is cell-based, human. How it is done: as §3, §4
A further series has as its system MRC5. The series can be described thus: Cytotoxicity assay, alamar blue test (healthy cell line). The class given is cell-based, human. The settings on record: value (95% confidence interval). The procedure: as §3, §4
In series [3] the test system is Candida albicans CBS 562. As to the kind of experiment: MIC by broth microdilution. As to conditions: N.A.: no activity; for MIC C. albicans CBS 562: 24 h. The class given is cell-based. How it is done: as §1
(§5) MIC was determined by the microdilution technique, as previously described by the adapted Clinical and Laboratory Standards Institute (CLSI, 2002) method. The compounds were subjected to the microdilution technique in 96-well plates, with U bottom. The samples were dissolved with DMSO and sterile distilled water (up to 1.0 mL). Through serial dilutions, concentrations of the evaluated compounds ranging from 1000 μg/mL to 7.8 μg/mL. The culture sterility medium, the evaluated substances, and the microbial growth were carried out in parallel. The plates were closed and subjected to a temperature of 35 ± 2°C for 24 h. 1% TTC (2,3,5-triphenyl tetrazolium chloride, Sigma-Aldrich®, St. Louis, MO, EUA) was added to each well to confirm the presence of viable microorganisms. MIC was defined as the lowest concentration of the test substance that inhibits visible microbial growth.

The test system of another series is C. albicans CBS 562. As to the kind of experiment: Sorbitol assay (cell wall mechanism), microdilution. Format: cell-based, Candida albicans. As to conditions: Candida albicans, CBS562, C. albicans CBS 562. How it is done: (1) Sorbitol Assay. The microdilution technique was performed in the presence of sorbitol (D-sorbitol, anhydrous) (INLAB laboratory), to determine the mode of action of the compounds on the cell wall of C. albicans CBS 562. For this test, the inoculum was prepared with sorbitol to a final concentration of 0.8 M. The plates were incubated at 35 ± 2°C, and readings were taken 24 h and 48 h after incubation. Caspofungin was used as positive control at an initial concentration of 5 mg/mL [68–70].

Another series deals with C. albicans. As to the kind of experiment: Ergosterol test (plasma membrane mechanism), microdilution. The class given is cell-based, Candida albicans. As to conditions: Candida albicans. The procedure: (2) Ergosterol Test. The test of the compounds was performed using the microdilution technique, as previously described, in the presence of exogenous ergosterol at 400 μg/mL. Nystatin was used as positive control. The plates were incubated at 35 ± 2°C, and readings were taken at 24 and 48 h.

Series [4] deals with Candida albicans CBS 562. As to the kind of experiment: Minimum fungicide concentration (MFC). Format: cell-based. How it is done:
as §1, §2

In series [5] the test system is Candida strains (Candida albicans, C. tropicalis, and C. krusei). As to the kind of experiment: Antifungal evaluation (MIC/MFC), statements for all Candida strains. The class given is cell-based, Candida spp. As to conditions: Candida strains; read-out: bioactivity category by MIC. How it is done:
The antifungal activity (Table 2) of the ten amides was assessed via the minimum inhibitory concentration (MIC) which was determined using the microdilution methods against three species of Candida strains (Candida albicans, C. tropicalis, and C. krusei).
as §1, §5
The minimum fungicide concentration (MFC) of the compounds was obtained after the interpretation of the MIC. Three (3) aliquots of 30 μL of supernatant were removed from the wells (where complete inhibition of fungal growth was analyzed) and placed in Petri dishes containing 15 mL of agar Sabouraud dextrose. The plates were incubated at 35 ± 2°C for 24 h for visual counting of colony forming units.

Series [6] deals with Candida krusei CBS 573. As to the kind of experiment: MIC by broth microdilution. Format: cell-based. The settings on record: Pichia kudriavzevii, CBS573, 24 h, N.A.: no activity, read-out: MIC C. krusei CBS 573. The procedure: as §1, §5
Series [7] relates to Candida tropicalis CBS 94. The series can be described thus: MIC by broth microdilution. The class given is cell-based. As to conditions: CBS94, 24 h, N.A.: no activity, read-out: MIC C. tropicalis CBS 94. How it is done: as §1, §5

In brackets after ≈: the same amount, converted by molar mass. Several values for one entry are separate records, joined by “and”; a condition that tells them apart may be missing. Equal values may be shown once. Read-outs that look alike come from different tables or passages of the source. Bounds are passed on as bounds.

Take “(E)-3-(3-hydroxy-4-methoxyphenyl)-N-(4-methylbenzyl)acrylamide [Compound 7]”: the “MIC/MFC reason C. krusei CBS 573” value in the series with Candida krusei CBS 573 [1] was 1. The “MIC/MFC reason C. tropicalis CBS 94” value in series [2] amounted to 1. In addition, the IC50 in the series on HL-60 (72 h) turned out to be 53.1 µM. For the same molecule, in the series with HCT116 (72 h), the IC50 was > 84.1 µM and the “IC50 HCT116” value is >25 µg/mL. In addition, in the series on HepG2 cells (72 h), the IC50 is > 84.1 µM and the “IC50 HEPG2” value was >25 µg/mL. In the series with MRC5 (72 h), the IC50 is > 84.1 µM and the “IC50 MRC5” value is >25 µg/mL. The “MIC C. albicans CBS 562” value in the series on Candida albicans CBS 562 [3] is “inactive”.
Consider `COc1cc(C=CC(=O)NCc2ccc3c(c2)OCO3)ccc1O` [Compound 11], for which the melting point lay within 172 to 175 °C. Besides, the MIC in the series with C. albicans CBS 562 (absence of sorbitol, read-out: MIC Without sorbitol) turned out to be 15.6 µg/mL (≈ 47.7 µM). Also, the MIC in the series with C. albicans CBS 562 (sorbitol 0.8 M, read-out: MIC With sorbitol) is > 1000 µg/mL. The MIC with C. albicans (absence of ergosterol, read-out: MIC Without ergosterol) was 62.2 µg/mL (≈ 190 µM). In addition, in the series on C. albicans (exogenous ergosterol at 400 μg/mL, read-out: MIC With ergosterol), the MIC worked out at 62.2 µg/mL (≈ 190 µM). Also, in the series with Candida krusei CBS 573 [1] (Pichia kudriavzevii, CBS573, N.A.: no activity, read-out: MFC C. krusei CBS 573), the MFC is 62.5 µg/mL and 190 µM. Besides, the “MIC/MFC reason C. krusei CBS 573” value in the series with Candida krusei CBS 573 [1] amounted to 1. Further, the MFC in series [2] (Candida tropicalis, CBS94, N.A.: no activity, read-out: MFC C. tropicalis CBS 94) was 500 µg/mL and 1520 µM. In addition, in series [2], the “MIC/MFC reason C. tropicalis CBS 94” value was determined as 1. The MFC with Candida albicans CBS 562 [4] (Candida albicans, CBS562, N.A.: no activity, read-out: MFC C. albicans CBS 562) was 125 µg/mL and 380 µM. Also, in the series with Candida albicans CBS 562 [4] (≥ 4 fungistatic or <4 fungicide), the “MIC/MFC reason C. albicans CBS 562” value is 2. The IC50 with HL-60 (Homo sapiens, HL-60, 72 h) is 18.8 µg/mL and 57.4 µM. Also, in the series on HCT116 (Homo sapiens, HCT-116, 72 h), the IC50 is > 25 µg/mL and > 76.4 µM. Besides, in the series on HepG2 cells (Homo sapiens, HepG2, 72 h), the IC50 was > 25 µg/mL and > 76.4 µM. Further, in the series on MRC5 (Homo sapiens, MRC5, 72 h), the IC50 is > 25 µg/mL and > 76.4 µM. Also, in [5], the MIC lay in the range of 26 to 125 µg/mL (≈ 79.4 to 382 µM). For the same molecule, the MIC in the series on Candida krusei CBS 573 [6] worked out at 62.5 µg/mL (≈ 191 µM). The MIC in [7] came to 500 µg/mL (≈ 1530 µM). In the series on Candida albicans CBS 562 [3] (Candida albicans, CBS562, 24 h, read-out: MIC C. albicans CBS 562), the MIC is 62.5 µg/mL and 190 µM.
With “(E)-N-(4-chlorobenzyl)-3-(3-hydroxy-4-methoxyphenyl)acrylamide [Compound 9]”, the “MIC/MFC reason C. krusei CBS 573” value against Candida krusei CBS 573 [1] turned out to be 1. Moreover, in series [2], the “MIC/MFC reason C. tropicalis CBS 94” value is listed as 1. Also, in the series on HL-60 (72 h), the “IC50 HL60” value is on record as 15.58 (9.26–26.20) μg/mL and the IC50 came out at 49 µM. Moreover, in the series on HCT116 (72 h), the IC50 is > 78.7 µM and the “IC50 HCT116” value is >25 µg/mL. Also, in the series with HepG2 cells (72 h), the IC50 was > 78.7 µM and the “IC50 HEPG2” value is >25 µg/mL. In the series with MRC5 (72 h), the IC50 is > 78.7 µM and the “IC50 MRC5” value is >25 µg/mL. In addition, the “MIC C. albicans CBS 562” value with Candida albicans CBS 562 [3] is reported as “inactivity”.
